# Results from publication PMC5433425 (PeerJ, 2017).
# Key:
# [1] = test system: E. coli AG100tet; assay: EtBr efflux by real-time fluorometry; conditions: 80 µM
# Experimental: Control tubes with only cells and cells with and without 0.4% glucose were included. The fluorescence was measured in a Rotor-Gene 3000 and the data was acquired every 30 s for 30 min at 37 °C. The efflux activity was quantified by comparing the fluorescence data obtained under conditions that promote efflux (presence of glucose and absence of efflux inhibitor) with the data from the control in which the bacteria are under conditions of no efflux (presence of an inhibitor and no energy source).
# [2] = test system: E. coli AG100; assay: EtBr accumulation by real-time fluorometry; conditions: EtBr 1 µg/ml + inhibitor 80 µM
compound,measurement,setting,value
"CN(C)CCCN1c2ccccc2Sc2ccc(Cl)cc21 [CPZ, chlorpromazine]","Fluorescence raw data, Channel Cycling A.530/585hp","[1]; cycle 1, + glucose",6.9729
same,"Fluorescence raw data, Channel Cycling A.530/585hp","[1]; cycle 1, without glucose",6.962
same,"Fluorescence raw data, Channel Cycling A.530/585hp","[1]; cycle 2, + glucose",6.777
same,"Fluorescence raw data, Channel Cycling A.530/585hp","[1]; cycle 2, without glucose",6.801
same,"Fluorescence raw data, Channel Cycling A.530/585hp","[1]; cycle 3, + glucose",6.512
same,"Fluorescence raw data, Channel Cycling A.530/585hp","[1]; cycle 3, without glucose",6.754
same,"Fluorescence raw data, Channel Cycling A.530/585hp","[1]; cycle 4, without glucose",6.877
same,"Fluorescence raw data, Channel Cycling A.530/585hp","[1]; cycle 5, without glucose",7.026
same,"Fluorescence raw data, Channel Cycling A.530/585hp","[1]; cycle 6, without glucose",7.1507
same,"Fluorescence raw data, Channel Cycling A.530/585hp","[1]; cycle 7, without glucose",7.108
same,"Fluorescence raw data, Channel Cycling A.530/585hp","[1]; cycle 8, without glucose",7.075
same,"Fluorescence raw data, Channel Cycling A.530/585hp","[1]; cycle 9, + glucose",6.252
same,"Fluorescence raw data, Channel Cycling A.530/585hp","[1]; cycle 9, without glucose",7.246
same,"Fluorescence raw data, Channel Cycling A.530/585hp","[1]; cycle 10, + glucose",6.3883
same,"Fluorescence raw data, Channel Cycling A.530/585hp","[1]; cycle 10, without glucose",7.315
same,"Fluorescence raw data, Channel Cycling A.530/585hp","[1]; cycle 11, + glucose",6.371
same,"Fluorescence raw data, Channel Cycling A.530/585hp","[1]; cycle 11, without glucose",7.397
same,"Fluorescence raw data, Channel Cycling A.530/585hp","[1]; cycle 12, + glucose",6.405
same,"Fluorescence raw data, Channel Cycling A.530/585hp","[1]; cycle 12, without glucose",7.4437
same,"Fluorescence raw data, Channel Cycling A.530/585hp","[1]; cycle 13, + glucose",6.558
same,"Fluorescence raw data, Channel Cycling A.530/585hp","[1]; cycle 13, without glucose",7.742
same,"Fluorescence raw data, Channel Cycling A.530/585hp","[1]; cycle 14, + glucose",6.536
same,"Fluorescence raw data, Channel Cycling A.530/585hp","[1]; cycle 14, without glucose",7.795
same,"Fluorescence raw data, Channel Cycling A.530/585hp","[1]; cycle 15, + glucose",6.4669
same,"Fluorescence raw data, Channel Cycling A.530/585hp","[1]; cycle 15, without glucose",7.899
same,"Fluorescence raw data, Channel Cycling A.530/585hp","[1]; cycle 16, + glucose",6.613
same,"Fluorescence raw data, Channel Cycling A.530/585hp","[1]; cycle 16, without glucose",7.989
same,"Fluorescence raw data, Channel Cycling A.530/585hp","[1]; cycle 17, + glucose",6.675
same,"Fluorescence raw data, Channel Cycling A.530/585hp","[1]; cycle 17, without glucose",8.041
same,"Fluorescence raw data, Channel Cycling A.530/585hp","[1]; cycle 18, + glucose",6.686
same,"Fluorescence raw data, Channel Cycling A.530/585hp","[1]; cycle 18, without glucose",8.027
same,"Fluorescence raw data, Channel Cycling A.530/585hp","[1]; cycle 19, + glucose",6.605
same,"Fluorescence raw data, Channel Cycling A.530/585hp","[1]; cycle 19, without glucose",8.219
same,"Fluorescence raw data, Channel Cycling A.530/585hp","[1]; cycle 20, + glucose",6.711
same,"Fluorescence raw data, Channel Cycling A.530/585hp","[1]; cycle 20, without glucose",8.174
same,"Fluorescence raw data, Channel Cycling A.530/585hp","[1]; cycle 21, + glucose",6.762
same,"Fluorescence raw data, Channel Cycling A.530/585hp","[1]; cycle 21, without glucose",8.255
same,"Fluorescence raw data, Channel Cycling A.530/585hp","[1]; cycle 22, + glucose",6.7278
same,"Fluorescence raw data, Channel Cycling A.530/585hp","[1]; cycle 22, without glucose",8.507
same,"Fluorescence raw data, Channel Cycling A.530/585hp","[1]; cycle 23, + glucose",6.745
same,"Fluorescence raw data, Channel Cycling A.530/585hp","[1]; cycle 23, without glucose",8.467
same,"Fluorescence raw data, Channel Cycling A.530/585hp","[1]; cycle 24, + glucose",6.771
same,"Fluorescence raw data, Channel Cycling A.530/585hp","[1]; cycle 24, without glucose",8.6
same,"Fluorescence raw data, Channel Cycling A.530/585hp","[1]; cycle 25, + glucose",6.796
same,"Fluorescence raw data, Channel Cycling A.530/585hp","[1]; cycle 25, without glucose",8.667
same,"Fluorescence raw data, Channel Cycling A.530/585hp","[1]; cycle 26, + glucose",6.92
same,"Fluorescence raw data, Channel Cycling A.530/585hp","[1]; cycle 26, without glucose",8.734
same,"Fluorescence raw data, Channel Cycling A.530/585hp","[1]; cycle 27, + glucose",6.8217
same,"Fluorescence raw data, Channel Cycling A.530/585hp","[1]; cycle 27, without glucose",8.768
same,"Fluorescence raw data, Channel Cycling A.530/585hp","[1]; cycle 28, + glucose",6.925
same,"Fluorescence raw data, Channel Cycling A.530/585hp","[1]; cycle 28, without glucose",8.988
same,"Fluorescence raw data, Channel Cycling A.530/585hp","[1]; cycle 29, + glucose",6.828
same,"Fluorescence raw data, Channel Cycling A.530/585hp","[1]; cycle 29, without glucose",9.111
same,"Fluorescence raw data, Channel Cycling A.530/585hp","[1]; cycle 30, + glucose",6.9
same,"Fluorescence raw data, Channel Cycling A.530/585hp","[1]; cycle 30, without glucose",8.957
same,"Fluorescence raw data, Channel Cycling A.530/585hp","[1]; cycle 31, + glucose",6.782
same,"Fluorescence raw data, Channel Cycling A.530/585hp","[1]; cycle 31, without glucose",9.091
same,"Fluorescence raw data, Channel Cycling A.530/585hp","[1]; cycle 32, + glucose",6.729
same,"Fluorescence raw data, Channel Cycling A.530/585hp","[1]; cycle 32, without glucose",9.229
same,"Fluorescence raw data, Channel Cycling A.530/585hp","[1]; cycle 33, + glucose",6.907
same,"Fluorescence raw data, Channel Cycling A.530/585hp","[1]; cycle 33, without glucose",9.3007
same,"Fluorescence raw data, Channel Cycling A.530/585hp","[1]; cycle 34, + glucose",6.901
same,"Fluorescence raw data, Channel Cycling A.530/585hp","[1]; cycle 34, without glucose",9.345
same,"Fluorescence raw data, Channel Cycling A.530/585hp","[1]; cycle 35, + glucose",6.783
same,"Fluorescence raw data, Channel Cycling A.530/585hp","[1]; cycle 35, without glucose",9.405
same,"Fluorescence raw data, Channel Cycling A.530/585hp","[1]; cycle 36, + glucose",6.785
same,"Fluorescence raw data, Channel Cycling A.530/585hp","[1]; cycle 36, without glucose",9.367
same,"Fluorescence raw data, Channel Cycling A.530/585hp","[1]; cycle 37, + glucose",6.975
same,"Fluorescence raw data, Channel Cycling A.530/585hp","[1]; cycle 37, without glucose",9.488
same,"Fluorescence raw data, Channel Cycling A.530/585hp","[1]; cycle 38, + glucose",6.976
same,"Fluorescence raw data, Channel Cycling A.530/585hp","[1]; cycle 38, without glucose",9.581
same,"Fluorescence raw data, Channel Cycling A.530/585hp","[1]; cycle 39, + glucose",6.681
same,"Fluorescence raw data, Channel Cycling A.530/585hp","[1]; cycle 39, without glucose",9.571
same,"Fluorescence raw data, Channel Cycling A.530/585hp","[1]; cycle 40, + glucose",6.952
same,"Fluorescence raw data, Channel Cycling A.530/585hp","[1]; cycle 40, without glucose",9.707
same,"Fluorescence raw data, Channel Cycling A.530/585hp","[1]; cycle 41, + glucose",6.766
same,"Fluorescence raw data, Channel Cycling A.530/585hp","[1]; cycle 41, without glucose",9.731
same,"Fluorescence raw data, Channel Cycling A.530/585hp","[1]; cycle 42, + glucose",6.916
same,"Fluorescence raw data, Channel Cycling A.530/585hp","[1]; cycle 42, without glucose",9.718
same,"Fluorescence raw data, Channel Cycling A.530/585hp","[1]; cycle 43, + glucose",6.844
same,"Fluorescence raw data, Channel Cycling A.530/585hp","[1]; cycle 43, without glucose",9.8689
same,"Fluorescence raw data, Channel Cycling A.530/585hp","[1]; cycle 44, + glucose",6.82
same,"Fluorescence raw data, Channel Cycling A.530/585hp","[1]; cycle 44, without glucose",9.768
same,"Fluorescence raw data, Channel Cycling A.530/585hp","[1]; cycle 45, without glucose",9.807
same,"Fluorescence raw data, Channel Cycling A.530/585hp","[1]; cycle 46, without glucose",9.797
same,"Fluorescence raw data, Channel Cycling A.530/585hp","[1]; cycle 47, without glucose",9.663
same,"Fluorescence raw data, Channel Cycling A.530/585hp","[1]; cycle 48, without glucose",9.794
same,"Fluorescence raw data, Channel Cycling A.530/585hp","[1]; cycle 49, without glucose",9.745
same,"Fluorescence raw data, Channel Cycling A.530/585hp","[1]; cycle 50, without glucose",9.769
same,"Fluorescence raw data, Channel Cycling A.530/585hp","[1]; cycle 51, without glucose",9.982
same,"Fluorescence raw data, Channel Cycling A.530/585hp","[1]; cycle 52, without glucose",9.725
same,"Fluorescence raw data, Channel Cycling A.530/585hp","[1]; cycle 53, without glucose",9.758
same,"Fluorescence raw data, Channel Cycling A.530/585hp","[1]; cycle 54, without glucose",9.768
same,"Fluorescence raw data, Channel Cycling A.530/585hp","[1]; cycle 55, without glucose",9.755
same,"Fluorescence raw data, Channel Cycling A.530/585hp","[1]; cycle 56, without glucose",9.766
same,"Fluorescence raw data, Channel Cycling A.530/585hp","[1]; cycle 57, without glucose",9.676
same,"Fluorescence raw data, Channel Cycling A.530/585hp","[1]; cycle 58, without glucose",9.567
same,"Fluorescence raw data, Channel Cycling A.530/585hp","[1]; cycle 59, without glucose",9.679
same,"Fluorescence raw data, Channel Cycling A.530/585hp","[1]; cycle 60, without glucose",9.626
same,"Fluorescence raw data, Channel Cycling A.530/585hp","[1]; cycle 61, without glucose",9.5963
same,EtBr fluorescence,[2]; cycle 1,6.13
same,EtBr fluorescence,[2]; cycle 2,8.192
same,EtBr fluorescence,[2]; cycle 3,10.0781
same,EtBr fluorescence,[2]; cycle 4,12.1665
same,EtBr fluorescence,[2]; cycle 5,14.1022
same,EtBr fluorescence,[2]; cycle 6,16.1694
same,EtBr fluorescence,[2]; cycle 7,18.3713
same,EtBr fluorescence,[2]; cycle 8,20.6676
same,EtBr fluorescence,[2]; cycle 9,22.7314
same,EtBr fluorescence,[2]; cycle 10,24.8681
same,EtBr fluorescence,[2]; cycle 11,27.4474
same,EtBr fluorescence,[2]; cycle 12,29.5933
same,EtBr fluorescence,[2]; cycle 13,31.7973
same,EtBr fluorescence,[2]; cycle 14,34.5154
same,EtBr fluorescence,[2]; cycle 15,36.8928
same,EtBr fluorescence,[2]; cycle 16,39.2786
same,EtBr fluorescence,[2]; cycle 17,41.9426
same,EtBr fluorescence,[2]; cycle 18,44.0663
same,EtBr fluorescence,[2]; cycle 19,46.4485
same,EtBr fluorescence,[2]; cycle 20,49.5818
same,EtBr fluorescence,[2]; cycle 21,51.5786
same,EtBr fluorescence,[2]; cycle 22,54.5618
same,EtBr fluorescence,[2]; cycle 23,56.7461
same,EtBr fluorescence,[2]; cycle 24,59.3586
same,EtBr fluorescence,[2]; cycle 25,62.2682
same,EtBr fluorescence,[2]; cycle 26,64.3897
same,EtBr fluorescence,[2]; cycle 27,67.0371
same,EtBr fluorescence,[2]; cycle 28,69.6952
same,EtBr fluorescence,[2]; cycle 29,72.3896
same,EtBr fluorescence,[2]; cycle 30,75.3315
